Laboratory results taken from ChEMBL document CHEMBL3797052 (Eur J Med Chem, 2016).

Test system: not listed separately
Assay: Antiproliferative activity against human UACC257 cells assessed as cell growth at 10^-6 M after 48 hrs by sulforhodamine B assay
Type: functional
Conditions: UACC-257, 48 h, read-out: Activity

SMILES	growth at 1 µM [%]
CNC(=O)c1cc(Oc2ccc3nc(NC(=O)c4cc(C(F)(F)F)cc(C(F)(F)F)c4)sc3c2)ccn1	101

Test system: MCF7
Assay: Antiproliferative activity against human MCF7 cells assessed as cell growth at 10^-7 M after 48 hrs by sulforhodamine B assay
Type: functional
Conditions: MCF7, 48 h, read-out: Activity

SMILES	growth at 0.1 µM [%]
CNC(=O)c1cc(Oc2ccc3nc(NC(=O)c4cc(C(F)(F)F)cc(C(F)(F)F)c4)sc3c2)ccn1	89

Molecular target: CYP2C19 (Homo sapiens, UniProt P33261)
Assay: Inhibition of recombinant human CYP2C19 assessed as remaining enzyme activity at 10 uM after 5 mins in presence of NADP by fluorescence plate reader analysis
Type: ADME
Conditions: read-out: Activity

CYP2C19, sequence (P33261 whole entry): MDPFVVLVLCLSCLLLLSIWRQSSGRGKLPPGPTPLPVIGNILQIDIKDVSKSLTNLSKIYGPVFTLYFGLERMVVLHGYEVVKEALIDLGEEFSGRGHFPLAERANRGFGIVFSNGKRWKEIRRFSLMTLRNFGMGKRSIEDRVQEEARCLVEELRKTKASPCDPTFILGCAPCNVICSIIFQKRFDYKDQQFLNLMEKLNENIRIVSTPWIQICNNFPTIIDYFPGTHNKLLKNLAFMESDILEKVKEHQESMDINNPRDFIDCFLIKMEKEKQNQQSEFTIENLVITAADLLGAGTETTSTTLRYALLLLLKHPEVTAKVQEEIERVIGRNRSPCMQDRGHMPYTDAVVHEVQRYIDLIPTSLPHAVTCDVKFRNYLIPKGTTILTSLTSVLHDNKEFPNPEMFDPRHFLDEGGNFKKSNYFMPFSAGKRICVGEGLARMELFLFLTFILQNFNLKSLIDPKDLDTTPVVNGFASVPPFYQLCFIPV

SMILES	activity at 5 min, 10 µM [%]
CNC(=O)c1cc(Oc2ccc3nc(NC(=O)c4cc(C(F)(F)F)cc(C(F)(F)F)c4)sc3c2)ccn1	10.3

Molecular target: CYP3A4 (Homo sapiens, UniProt P08684)
Assay: Inhibition of recombinant human CYP3A4 assessed as remaining enzyme activity using CYP3A4 blue as substrate at 10 uM after 5 mins in presence of NADP by fluorescence plate reader analysis
Type: ADME
Conditions: recombinant human CYP3A4, probe CYP3A4 blue, read-out: Activity

CYP3A4, sequence (P08684 whole entry): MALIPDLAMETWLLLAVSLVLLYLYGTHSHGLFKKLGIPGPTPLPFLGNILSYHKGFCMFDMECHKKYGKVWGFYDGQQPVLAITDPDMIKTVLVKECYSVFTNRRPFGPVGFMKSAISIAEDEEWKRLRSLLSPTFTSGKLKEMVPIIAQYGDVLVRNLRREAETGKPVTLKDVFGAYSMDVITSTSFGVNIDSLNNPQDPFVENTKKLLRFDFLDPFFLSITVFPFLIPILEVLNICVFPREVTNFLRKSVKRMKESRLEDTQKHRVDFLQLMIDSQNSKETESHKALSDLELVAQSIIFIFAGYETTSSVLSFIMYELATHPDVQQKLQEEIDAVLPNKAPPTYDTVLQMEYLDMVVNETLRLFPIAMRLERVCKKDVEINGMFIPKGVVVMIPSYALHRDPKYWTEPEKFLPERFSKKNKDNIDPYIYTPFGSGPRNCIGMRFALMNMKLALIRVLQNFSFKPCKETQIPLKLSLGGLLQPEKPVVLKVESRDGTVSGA

SMILES	activity at 5 min, 10 µM [%]
CNC(=O)c1cc(Oc2ccc3nc(NC(=O)c4cc(C(F)(F)F)cc(C(F)(F)F)c4)sc3c2)ccn1	72.9

Test system: not listed separately
Assay: Antiproliferative activity against human SNB75 cells assessed as cell growth at 10^-8 M after 48 hrs by sulforhodamine B assay
Type: functional
Conditions: SNB-75, 48 h, read-out: Activity

SMILES	growth at 0.01 µM [%]
CNC(=O)c1cc(Oc2ccc3nc(NC(=O)c4cc(C(F)(F)F)cc(C(F)(F)F)c4)sc3c2)ccn1	82

Test system: not listed separately
Assay: Antiproliferative activity against human NCI-ADR-RES cells assessed as cell growth at 10^-7 M after 48 hrs by sulforhodamine B assay
Type: functional
Conditions: read-out: Activity

SMILES	growth at 0.1 µM [%]
CNC(=O)c1cc(Oc2ccc3nc(NC(=O)c4cc(C(F)(F)F)cc(C(F)(F)F)c4)sc3c2)ccn1	103

Test system: 786-0
Assay: Antiproliferative activity against human 786-0 cells assessed as cell growth at 10^-6 M after 48 hrs by sulforhodamine B assay
Type: functional
Conditions: 786-0, 48 h, read-out: Activity

SMILES	growth at 1 µM [%]
CNC(=O)c1cc(Oc2ccc3nc(NC(=O)c4cc(C(F)(F)F)cc(C(F)(F)F)c4)sc3c2)ccn1	91

Test system: not listed separately
Assay: Antiproliferative activity against human UO31 cells assessed as cell growth at 10^-8 M after 48 hrs by sulforhodamine B assay
Type: functional
Conditions: UO-31, 48 h, read-out: Activity

SMILES	growth at 0.01 µM [%]
CNC(=O)c1cc(Oc2ccc3nc(NC(=O)c4cc(C(F)(F)F)cc(C(F)(F)F)c4)sc3c2)ccn1	85

Test system: not listed separately
Assay: Antiproliferative activity against human OVCAR5 cells assessed as cell growth at 10^-4 M after 48 hrs by sulforhodamine B assay
Type: functional
Conditions: OVCAR-5, 48 h, read-out: Activity

SMILES	growth at 100 µM [%]
CNC(=O)c1cc(Oc2ccc3nc(NC(=O)c4cc(C(F)(F)F)cc(C(F)(F)F)c4)sc3c2)ccn1	-48

Test system: MDA-MB-435
Assay: Antiproliferative activity against human MDA-MB-435 cells assessed as cell growth at 10^-7 M after 48 hrs by sulforhodamine B assay
Type: functional
Conditions: MDA-MB-435, 48 h, read-out: Activity

SMILES	growth at 0.1 µM [%]
CNC(=O)c1cc(Oc2ccc3nc(NC(=O)c4cc(C(F)(F)F)cc(C(F)(F)F)c4)sc3c2)ccn1	92

Test system: not listed separately
Assay: Antiproliferative activity against human COLO205 cells assessed as cell growth at 10^-6 M after 48 hrs by sulforhodamine B assay
Type: functional
Conditions: COLO 205, 48 h, read-out: Activity

SMILES	growth at 1 µM [%]
CNC(=O)c1cc(Oc2ccc3nc(NC(=O)c4cc(C(F)(F)F)cc(C(F)(F)F)c4)sc3c2)ccn1	99

Test system: not listed separately
Assay: Antiproliferative activity against human MOLT4 cells assessed as cell growth at 10^-4 M after 48 hrs by sulforhodamine B assay
Type: functional
Conditions: MOLT-4, 48 h, read-out: Activity

SMILES	growth at 100 µM [%]
CNC(=O)c1cc(Oc2ccc3nc(NC(=O)c4cc(C(F)(F)F)cc(C(F)(F)F)c4)sc3c2)ccn1	-7

Test system: not listed separately
Assay: Antiproliferative activity against human DU145 cells assessed as cell growth at 10^-8 M after 48 hrs by sulforhodamine B assay
Type: functional
Conditions: DU-145, 48 h, read-out: Activity

SMILES	growth at 0.01 µM [%]
CNC(=O)c1cc(Oc2ccc3nc(NC(=O)c4cc(C(F)(F)F)cc(C(F)(F)F)c4)sc3c2)ccn1	105

Test system: not listed separately
Assay: Antiproliferative activity against human NCI-ADR-RES cells assessed as cell growth at 10^-6 M after 48 hrs by sulforhodamine B assay
Type: functional
Conditions: read-out: Activity

SMILES	growth at 1 µM [%]
CNC(=O)c1cc(Oc2ccc3nc(NC(=O)c4cc(C(F)(F)F)cc(C(F)(F)F)c4)sc3c2)ccn1	96

Test system: not listed separately
Assay: Antiproliferative activity against human SNB75 cells assessed as growth inhibition after 48 hrs by sulforhodamine B assay
Type: functional
Conditions: SNB-75, 48 h

SMILES	GI50 [µM]	TGI [µM]
CNC(=O)c1cc(Oc2ccc3nc(NC(=O)c4cc(C(F)(F)F)cc(C(F)(F)F)c4)sc3c2)ccn1	3.13	14.8

Same assay, conditions: SNB-75, 48 h, read-out: LC50 (the source's name)

SMILES	CC50 [µM]
CNC(=O)c1cc(Oc2ccc3nc(NC(=O)c4cc(C(F)(F)F)cc(C(F)(F)F)c4)sc3c2)ccn1	96.5

Test system: not listed separately
Assay: Antiproliferative activity against human UACC257 cells assessed as cell growth at 10^-4 M after 48 hrs by sulforhodamine B assay
Type: functional
Conditions: UACC-257, 48 h, read-out: Activity

SMILES	growth at 100 µM [%]
CNC(=O)c1cc(Oc2ccc3nc(NC(=O)c4cc(C(F)(F)F)cc(C(F)(F)F)c4)sc3c2)ccn1	-45

Test system: MDA-MB-435
Assay: Antiproliferative activity against human MDA-MB-435 cells assessed as cell growth at 10^-6 M after 48 hrs by sulforhodamine B assay
Type: functional
Conditions: MDA-MB-435, 48 h, read-out: Activity

SMILES	growth at 1 µM [%]
CNC(=O)c1cc(Oc2ccc3nc(NC(=O)c4cc(C(F)(F)F)cc(C(F)(F)F)c4)sc3c2)ccn1	96

Test system: not listed separately
Assay: Antiproliferative activity against human LOXIMVI cells assessed as cell growth at 10^-6 M after 48 hrs by sulforhodamine B assay
Type: functional
Conditions: LOX IMVI, read-out: Activity

SMILES	growth at 1 µM [%]
CNC(=O)c1cc(Oc2ccc3nc(NC(=O)c4cc(C(F)(F)F)cc(C(F)(F)F)c4)sc3c2)ccn1	94

Molecular target: RAF proto-oncogene serine/threonine-protein kinase (Homo sapiens, UniProt P04049)
Assay: Inhibition of human C-RAF measured after 40 mins by scintillation counting
Conditions: not given

RAF proto-oncogene serine/threonine-protein kinase, sequence (P04049 whole entry): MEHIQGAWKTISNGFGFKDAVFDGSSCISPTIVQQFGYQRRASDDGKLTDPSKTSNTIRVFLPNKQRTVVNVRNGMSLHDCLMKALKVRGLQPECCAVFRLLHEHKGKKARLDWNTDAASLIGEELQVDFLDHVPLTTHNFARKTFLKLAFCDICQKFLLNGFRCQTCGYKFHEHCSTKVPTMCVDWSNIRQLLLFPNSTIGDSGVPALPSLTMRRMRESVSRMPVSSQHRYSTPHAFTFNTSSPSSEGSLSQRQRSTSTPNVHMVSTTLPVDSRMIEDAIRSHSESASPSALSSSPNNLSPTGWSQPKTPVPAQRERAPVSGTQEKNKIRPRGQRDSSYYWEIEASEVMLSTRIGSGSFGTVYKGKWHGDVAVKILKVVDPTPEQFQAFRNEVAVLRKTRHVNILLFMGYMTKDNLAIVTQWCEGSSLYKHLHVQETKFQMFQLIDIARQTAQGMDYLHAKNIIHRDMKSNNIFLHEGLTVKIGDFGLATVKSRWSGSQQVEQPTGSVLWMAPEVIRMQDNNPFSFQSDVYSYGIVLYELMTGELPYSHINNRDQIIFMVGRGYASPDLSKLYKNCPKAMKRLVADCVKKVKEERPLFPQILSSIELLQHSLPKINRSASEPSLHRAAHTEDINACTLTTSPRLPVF

SMILES	IC50 [µM]
CNC(=O)c1cc(Oc2ccc3nc(NC(=O)c4cc(C(F)(F)F)cc(C(F)(F)F)c4)sc3c2)ccn1	0.695

Test system: SR
Assay: Antiproliferative activity against human SR cells assessed as growth inhibition after 48 hrs by sulforhodamine B assay
Type: functional
Conditions: not given

SMILES	GI50 [µM]	LC50 [µM]	TGI [µM]
CNC(=O)c1cc(Oc2ccc3nc(NC(=O)c4cc(C(F)(F)F)cc(C(F)(F)F)c4)sc3c2)ccn1	3.37	> 100	15
